Test results: US11884669B1, “Pyrrolo[3,2-c][1,7]naphthyridine-2-carboxylic acid compounds as CK2 inhibitors” (KING FAISAL UNIVERSITY, priority 2023, dated 2024)
pIC50: −log10 of the molar value.

Experiments:
HL60 (leukemia) = assay: In vitro cytotoxic activity MTT assay, HL60; assay type: cell-based; details: Homo sapiens, HL-60, 96 hours exposure, read-out: IC50, 50% inhibition of cell proliferation
Description: (§1) Compounds 1-16 were screened for their in vitro cytotoxic activity utilizing a 3-(4,5-dimethyl-thiazol-2-yl)-2,5-diphenyltetrazolium bromide (MTT) assay against selected cancer human cell lines consisting of PC3 (prostate), HCT116 (colon), A375 (melanoma), H1299 (lung), MIAPaCa-2 (pancreas), HL60 (leukemia), MCF7 (breast), MDA-MB-231 (breast) (T. Mosmann, J. Immunol. Meth., 1983, 65, 55-63). The cells were cultured at 37° C. in RMPI1640 medium supplemented with 10% fetal bovine serum, 50 IU/mL penicillin, and 50 μg/mL streptomycin in a 5% CO2 incubator. All cells were sub-cultured 3 times/week by trypsinisation. Viable cells were seeded and allowed to adhere for 12 h before a test drug was added in 96-well plates at an initial density of 1.0×10^5 cells/mL. Tumor cell lines were separately exposed to various concentrations of the tested compounds followed by incubation at a temperature of 37° C. during 96 h inside a medium of fresh RMPI 1640. Cells were subsequently incubated at 37° C. using MTT at 0.5 mg/mL during 4 h. After removal of supernatant, formazan crystals were dissolved in isopropanol and the optical density was measured at 570 nm. CX-4945 was used as a positive control.

[1] = target: T1, recombinant human CK2 (RRββ-holoenzyme) (Homo sapiens, UniProt P68400); assay: CK2 Kinase Assay (33P-ATP, filter plate); assay type: biochemical; details: final ATP concentration 15 μM, 10 min at 30° C.; read-out: protein kinase CK2 IC50
T1 construct: purchased Millipore
T1 sequence (P68400 whole entry): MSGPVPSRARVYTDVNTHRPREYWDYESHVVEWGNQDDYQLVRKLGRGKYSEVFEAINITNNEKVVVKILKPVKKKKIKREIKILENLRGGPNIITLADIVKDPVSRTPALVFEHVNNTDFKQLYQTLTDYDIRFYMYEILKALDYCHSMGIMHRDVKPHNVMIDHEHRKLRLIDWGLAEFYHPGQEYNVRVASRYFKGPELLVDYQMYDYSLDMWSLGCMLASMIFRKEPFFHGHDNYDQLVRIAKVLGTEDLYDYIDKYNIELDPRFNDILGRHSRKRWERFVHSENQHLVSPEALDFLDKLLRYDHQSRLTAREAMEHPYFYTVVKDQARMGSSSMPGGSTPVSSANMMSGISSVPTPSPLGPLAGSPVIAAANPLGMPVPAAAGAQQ
T1 sequence (P67870 whole entry partner): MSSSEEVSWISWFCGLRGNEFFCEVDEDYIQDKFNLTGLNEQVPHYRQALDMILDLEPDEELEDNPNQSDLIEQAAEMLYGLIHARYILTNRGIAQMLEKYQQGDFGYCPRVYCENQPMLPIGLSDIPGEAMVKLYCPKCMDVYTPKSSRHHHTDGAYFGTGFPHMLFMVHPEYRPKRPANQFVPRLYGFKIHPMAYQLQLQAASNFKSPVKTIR
Description: CK2 Kinase Assay was conducted using the protocol as described in Pierre F. et al; J. Med. Chem. 2011, 54, 635-654. The tested compounds in aqueous solution were added at a volume of 10 μL to a reaction mixture comprising 10 μL of assay dilution buffer (ADB; 20 mM MOPS, pH 7.2, 25 mM β-glycerol phosphate, 5 mM EGTA, 1 mM sodium orthovanadate, and 1 mM dithiothreitol), 10 μL of substrate peptide (RRRDDDSDDD, dissolved in ADB at a concentration of 1 mM), 10 μL of recombinant human CK2 (RRββ-holoenzyme, 25 ng dissolved in ADB; Millipore). Reactions were initiated by the addition of 10 μL of ATP solution (90% 75 mMMgCl2, 75 μM ATP (final ATP concentration: 15 μM) dissolved in ADB; 10% [γ-33P] ATP (stock 1mCi/100 μL; 3000 Ci/mmol (Perkin-Elmer) and maintained for 10 min at 30° C. The reactions were quenched with 100 μL of 0.75% phosphoric acid and then transferred to and filtered through a phosphor cellulose filter plate (Millipore). After washing each well five times with 0.75% phosphoric acid, the plate was dried under vacuum for 5 min and, following the addition of 15 μL of scintillation fluid to each well, the residual radioactivity was measured using a Wallac […]. The IC50 values were derived from eight concentrations of test inhibitors.

MIAPaCa-2 (pancreas) = assay: In vitro cytotoxic activity MTT assay, MIAPaCa-2; assay type: cell-based; details: Homo sapiens, MIA PaCa-2, 96 hours exposure, read-out: IC50, 50% inhibition of cell proliferation
Description: as §1

HCT116 (colon) = assay: In vitro cytotoxic activity MTT assay, HCT116; assay type: cell-based; details: Homo sapiens, HCT-116, 96 hours exposure, read-out: IC50, 50% inhibition of cell proliferation
Description: as §1

MDA-MB-231 (breast) = assay: In vitro cytotoxic activity MTT assay, MDA-MB-231; assay type: cell-based; details: Homo sapiens, 96 hours exposure, read-out: IC50, 50% inhibition of cell proliferation
Description: as §1

MCF7 (breast) = assay: In vitro cytotoxic activity MTT assay, MCF7; assay type: cell-based; details: Homo sapiens, 96 hours exposure, read-out: IC50, 50% inhibition of cell proliferation
Description: as §1

H1299 (lung) = assay: In vitro cytotoxic activity MTT assay, H1299; assay type: cell-based; details: Homo sapiens, NCI-H1299, 96 hours exposure, read-out: IC50, 50% inhibition of cell proliferation
Description: as §1

A375 (melanoma) = assay: In vitro cytotoxic activity MTT assay, A375; assay type: cell-based; details: Homo sapiens, A-375, 96 hours exposure, read-out: IC50, 50% inhibition of cell proliferation
Description: as §1

PC3 (prostate) = assay: In vitro cytotoxic activity MTT assay, PC3; assay type: cell-based; details: Homo sapiens, 96 hours exposure, read-out: IC50, 50% inhibition of cell proliferation
Description: as §1

Work on `O=C(O)c1cc2c(Nc3cccc(Cl)c3)nc3cnccc3c2[nH]1` [Example 1, 4-((3-chlorophenyl)amino)-1H-pyrrolo[3,2-c][1,7]naphthyridine-2-carboxylic acid] yielded a pIC50 (HL60 (leukemia)) of 5.70, a pIC50 [1] of 7.51 and a pIC50 (MIAPaCa-2 (pancreas)) of 5.85. It also gave a pIC50 (HCT116 (colon)) of 5.96, a pIC50 (MDA-MB-231 (breast)) of 5.46 and a pIC50 (MCF7 (breast)) of 5.41. For the same molecule, the pIC50 (H1299 (lung)) was 5.80, the pIC50 (A375 (melanoma)) was 5.49 and the pIC50 (PC3 (prostate)) was 5.64.
